From patent US8192962B2, “Processes for detecting toxic substances” (Daikin Industries, Ltd., priority 2001, dated 2012)

Test system: Mitochondria-located protein genes
Assay: DNA chip mRNA expression in yeast, mitochondria-located protein genes (Table 2)
Format: cell-based, Saccharomyces cerevisiae S288C
Conditions: cells incubated two hours with the chemical substance
Summary of the method: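 S. cerevisiae S288C grown at 25° C. in YPD to log phase, then exposed 2 h to a toxicant at a growth-inhibiting, non-lethal concentration; untreated cells as control. Poly(A) mRNA reverse-transcribed with Cy3-dUTP or Cy5-dUTP, hybridized >12 h at 65° C. to whole-genome yeast DNA chip; value = fluorescence ratio treated/untreated.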

Na2As [(1)]
The level of expressed mRNA in the presence of chemical substance/The level of expressed mRNA in the absence of chemical substance (yeast gene YJR121W): 0.9
The level of expressed mRNA in the presence of chemical substance/The level of expressed mRNA in the absence of chemical substance (yeast gene YKL003C): 1.1
The level of expressed mRNA in the presence of chemical substance/The level of expressed mRNA in the absence of chemical substance (yeast gene YKL016C): 1.5
The level of expressed mRNA in the presence of chemical substance/The level of expressed mRNA in the absence of chemical substance (yeast gene YKL141W): 1.6
The level of expressed mRNA in the presence of chemical substance/The level of expressed mRNA in the absence of chemical substance (yeast gene YKL142W): 1.8
The level of expressed mRNA in the presence of chemical substance/The level of expressed mRNA in the absence of chemical substance (yeast gene YKL148C): 0.9
The level of expressed mRNA in the presence of chemical substance/The level of expressed mRNA in the absence of chemical substance (yeast gene YKL170W): 1.0
The level of expressed mRNA in the presence of chemical substance/The level of expressed mRNA in the absence of chemical substance (yeast gene YKL194C): 0.9
The level of expressed mRNA in the presence of chemical substance/The level of expressed mRNA in the absence of chemical substance (yeast gene YKR066C): 0.9
The level of expressed mRNA in the presence of chemical substance/The level of expressed mRNA in the absence of chemical substance (yeast gene YLL041C): 1.1
The level of expressed mRNA in the presence of chemical substance/The level of expressed mRNA in the absence of chemical substance (yeast gene YLR038C): 2.3
The level of expressed mRNA in the presence of chemical substance/The level of expressed mRNA in the absence of chemical substance (yeast gene YLR259C): 0.7
The level of expressed mRNA in the presence of chemical substance/The level of expressed mRNA in the absence of chemical substance (yeast gene YLR295C): 1.4
The level of expressed mRNA in the presence of chemical substance/The level of expressed mRNA in the absence of chemical substance (yeast gene YLR304C): 0.7
The level of expressed mRNA in the presence of chemical substance/The level of expressed mRNA in the absence of chemical substance (yeast gene YLR348C): 1.1
The level of expressed mRNA in the presence of chemical substance/The level of expressed mRNA in the absence of chemical substance (yeast gene YLR395C): 1.8
The level of expressed mRNA in the presence of chemical substance/The level of expressed mRNA in the absence of chemical substance (yeast gene YML054C): 1.5
The level of expressed mRNA in the presence of chemical substance/The level of expressed mRNA in the absence of chemical substance (yeast gene YML120C): 1.1
The level of expressed mRNA in the presence of chemical substance/The level of expressed mRNA in the absence of chemical substance (yeast gene YML129C): 1.1
The level of expressed mRNA in the presence of chemical substance/The level of expressed mRNA in the absence of chemical substance (yeast gene YMR023C): 1.4
The level of expressed mRNA in the presence of chemical substance/The level of expressed mRNA in the absence of chemical substance (yeast gene YMR035W): 1.2
The level of expressed mRNA in the presence of chemical substance/The level of expressed mRNA in the absence of chemical substance (yeast gene YMR083W): 1.4
The level of expressed mRNA in the presence of chemical substance/The level of expressed mRNA in the absence of chemical substance (yeast gene YMR089C): 0.8
The level of expressed mRNA in the presence of chemical substance/The level of expressed mRNA in the absence of chemical substance (yeast gene YMR152W): 0.9
The level of expressed mRNA in the presence of chemical substance/The level of expressed mRNA in the absence of chemical substance (yeast gene YMR203W): 0.8
The level of expressed mRNA in the presence of chemical substance/The level of expressed mRNA in the absence of chemical substance (yeast gene YMR267W): 0.8
The level of expressed mRNA in the presence of chemical substance/The level of expressed mRNA in the absence of chemical substance (yeast gene YNL055C): 1.1
The level of expressed mRNA in the presence of chemical substance/The level of expressed mRNA in the absence of chemical substance (yeast gene YNL071W): 0.9
The level of expressed mRNA in the presence of chemical substance/The level of expressed mRNA in the absence of chemical substance (yeast gene YNL073W): 0.8
The level of expressed mRNA in the presence of chemical substance/The level of expressed mRNA in the absence of chemical substance (yeast gene YNL104C): 1.1
The level of expressed mRNA in the presence of chemical substance/The level of expressed mRNA in the absence of chemical substance (yeast gene YNL256W): 0.7
The level of expressed mRNA in the presence of chemical substance/The level of expressed mRNA in the absence of chemical substance (yeast gene YOL096C): 1.1
The level of expressed mRNA in the presence of chemical substance/The level of expressed mRNA in the absence of chemical substance (yeast gene YOR020C): 1.4
The level of expressed mRNA in the presence of chemical substance/The level of expressed mRNA in the absence of chemical substance (yeast gene YOR037W): 1.0
The level of expressed mRNA in the presence of chemical substance/The level of expressed mRNA in the absence of chemical substance (yeast gene YOR100C): 1.3
The level of expressed mRNA in the presence of chemical substance/The level of expressed mRNA in the absence of chemical substance (yeast gene YOR130C): 0.8
The level of expressed mRNA in the presence of chemical substance/The level of expressed mRNA in the absence of chemical substance (yeast gene YOR142W): 1.0
The level of expressed mRNA in the presence of chemical substance/The level of expressed mRNA in the absence of chemical substance (yeast gene YOR150W): 1.7
The level of expressed mRNA in the presence of chemical substance/The level of expressed mRNA in the absence of chemical substance (yeast gene YOR176W): 0.7
The level of expressed mRNA in the presence of chemical substance/The level of expressed mRNA in the absence of chemical substance (yeast gene YOR187W): 1.0
The level of expressed mRNA in the presence of chemical substance/The level of expressed mRNA in the absence of chemical substance (yeast gene YOR316C): 0.7
The level of expressed mRNA in the presence of chemical substance/The level of expressed mRNA in the absence of chemical substance (yeast gene YPL040C): 1.1
The level of expressed mRNA in the presence of chemical substance/The level of expressed mRNA in the absence of chemical substance (yeast gene YPL134C): 1.5
The level of expressed mRNA in the presence of chemical substance/The level of expressed mRNA in the absence of chemical substance (yeast gene YPL135W): 0.9
The level of expressed mRNA in the presence of chemical substance/The level of expressed mRNA in the absence of chemical substance (yeast gene YPL215W): 1.1
The level of expressed mRNA in the presence of chemical substance/The level of expressed mRNA in the absence of chemical substance (yeast gene YPL262W): 1.0
The level of expressed mRNA in the presence of chemical substance/The level of expressed mRNA in the absence of chemical substance (yeast gene YPR024W): 0.7
The level of expressed mRNA in the presence of chemical substance/The level of expressed mRNA in the absence of chemical substance (yeast gene YPR037C): 1.2
The level of expressed mRNA in the presence of chemical substance/The level of expressed mRNA in the absence of chemical substance (yeast gene YPR047W): 1.0
The level of expressed mRNA in the presence of chemical substance/The level of expressed mRNA in the absence of chemical substance (yeast gene YPR134W): 1.1
